SMILES strings stand for the structures. Like-named read-outs stand apart in the source and are kept apart here.

Test [1] deals with T1, FGFR2 V564F (Homo sapiens, UniProt P21802, V564F).
T1 construct: biochemical assays using purified intracellular domains of the respective isoforms; purchased SignalChem Biotech F05-12FG
Put plainly: FGFR mutant enzyme assay (HTRF KinEASE-TK). In kind it is biochemical. Conditions: ATP 1.5 uM. Here is the method:
(§1) Activity against FGFR wild type and mutant enzymes were determined in biochemical assays using purified intracellular domains of the respective isoforms using HTRF KinEASE-TK assay technology from CisBio, now PerkinElmer. (Catalogue number 62TK0PEC). Briefly test compounds were tested in 11 point 1:3 serial dilutions, typical final concentration range from 10,000 nM to 0.17 nM. Test compounds were dissolved in DMSO and added to assay plates using acoustic transfer. Enzyme was pre-incubated with test compound for 30 minutes and the assay was initiated by addition of ATP and TK-peptide substrate. After 60 minutes at room temperature the reaction was quenched with detection reagent and incubated for an additional 60 minutes at room temperature. The plates were read using a multimode reader and the emission ratio of 665 nm to 615 nm was determined. This ratio was converted to percent of control (POC). [1-(high control-sample signal)/(high control-low control)]*100. Wells without compound were used to determine high control values and wells without enzyme were used to determine low control values. The POC values were fit using a four-parameter logistic model and the value where the fit curve was equal to 50 POC was reported as the IC50 using the Signals Vitro Vivo software package (PerkinElmer). Final assay conditions were: 50 mM HEPES pH7.5, 10 mM MgCl2, 1 mM EDTA, 0.01% Brij-35, 2 mM MnCl2, 1 mM DTT, and 0.5 uM TK-peptide. The enzyme source, catalogue number, final enzyme concentration, and final ATP concentration can be found in the tables 1-2 below.
(Time-resolved FRET reads energy transfer from a long-lived donor to a nearby acceptor.)

Test [2] addresses T2, FGFR2 N549H (Homo sapiens, UniProt P21802, N549H).
T2 construct: biochemical assays using purified intracellular domains of the respective isoforms; purchased Carna Bioscience 08-532
Put plainly: FGFR mutant enzyme assay (HTRF KinEASE-TK). Type of test: biochemical. Conditions: ATP 0.9 uM. The protocol:
as §1

Test [3] addresses T3, FGFR2 V564I (Homo sapiens, UniProt P21802, V564I).
T3 construct: biochemical assays using purified intracellular domains of the respective isoforms; purchased Carna Bioscience 08-546
Put plainly: FGFR mutant enzyme assay (HTRF KinEASE-TK). In kind it is biochemical. Conditions: ATP 0.4 uM. Here is the method: as §1

Test [4] deals with FGFR2-WT (Homo sapiens, UniProt P21802). The experiment in a line: Phosphorylated FGFR2-WT (pFGFR2-WT) cell assay, KATOIII cells. Conditions: 1 hour incubation, phospho FGFR2 HTRF. Type of test: cell-based. Here is the method:
KATOIII cells were grown in the appropriate growth medium, IMDM supplemented with 20% fetal bovine serum. Cells were seeded into a 384-well at 1×10^5 cells/25 μL/well. Cells were treated with compound using three-fold serial dilutions at final concentrations ranging from 10 μM to 0.5 nM. Compound was incubated on cells for 1 hour at 37° C., 5% CO2.
Following the 1-hour incubation with compounds, cell lysates were prepared and phospho FGFR2 was measured using the HTRF Phospho-FGFR2 (TYR653/654) Detection Kits (CisBio, cat #64FGFR2Y6PEG). 8 μL of cell lysis buffer (4×) supplied with 1× Phospho and Total protein blocking reagent (CisBio, cat #64FGFR2Y6PEG, CisBio, cat #64KB1AAC) was then added to the wells. Cells were incubated with lysis buffer for 40 minutes at 4° C. under shaking conditions. Plates were centrifuged at 1500 rpm for 3 min and then 16 μL of cell lysate was transferred from the cell-culture plate to a small volume detection plate with the added premixed antibody solutions (4 μL) (CisBio, cat #64FGFR2Y6PEG). Plates were centrifuged at 1000 rpm for 1 min then incubated at 25° C. for 120 min, then overnight at 4° C. Plates were read on the En Vision multimode plate reader via HTRF dual wavelength detection. One hundred percent of control (POC) was determined using DMSO treated samples, and 0 POC was determined using the top concentration of a control compound. A 4-parameter logistic curve was fit to the POC values as a function of compound concentration to determine the IC50 value.

The target in test [5] is T4, FGFR2 (Homo sapiens, UniProt P21802).
T4 construct: biochemical assays using purified intracellular domains of the respective isoforms; purchased Carna Bioscience 08-134
Put plainly: FGFR wild type enzyme assay (HTRF KinEASE-TK). In kind it is biochemical. Conditions: ATP 2 uM. The protocol: as §1

The mark [6] stands for this setting: compound table after the examples, read-out: Enz FGFR2.

FGFR2-WT, sequence (P21802 430-767 limits assumed): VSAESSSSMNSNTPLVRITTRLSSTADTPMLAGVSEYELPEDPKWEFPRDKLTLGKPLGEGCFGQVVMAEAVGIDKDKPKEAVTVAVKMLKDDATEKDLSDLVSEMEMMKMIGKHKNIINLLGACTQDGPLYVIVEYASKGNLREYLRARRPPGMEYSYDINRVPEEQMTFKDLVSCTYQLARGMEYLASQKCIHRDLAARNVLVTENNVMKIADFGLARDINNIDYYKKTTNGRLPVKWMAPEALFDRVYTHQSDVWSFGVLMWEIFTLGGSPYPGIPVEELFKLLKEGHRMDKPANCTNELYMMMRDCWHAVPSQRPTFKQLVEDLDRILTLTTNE
T1 sequence (P21802 399-821 V564F limits assumed): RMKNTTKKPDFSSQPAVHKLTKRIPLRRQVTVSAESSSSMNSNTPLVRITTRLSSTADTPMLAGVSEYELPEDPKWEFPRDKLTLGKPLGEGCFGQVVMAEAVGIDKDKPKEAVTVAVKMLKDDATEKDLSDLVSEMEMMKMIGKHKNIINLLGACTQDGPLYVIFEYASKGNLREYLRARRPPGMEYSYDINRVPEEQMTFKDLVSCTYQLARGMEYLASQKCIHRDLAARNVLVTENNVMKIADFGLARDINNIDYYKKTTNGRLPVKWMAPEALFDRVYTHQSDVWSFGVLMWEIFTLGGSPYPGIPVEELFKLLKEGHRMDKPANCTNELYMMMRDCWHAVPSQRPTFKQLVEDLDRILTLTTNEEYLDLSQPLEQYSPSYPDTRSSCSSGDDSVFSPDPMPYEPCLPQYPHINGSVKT
T3 sequence (P21802 399-821 V564I limits assumed): as the sequence (P21802 399-821 V564F limits assumed) above, with F166I counted along it
T4 sequence (P21802 399-821 limits assumed): as the sequence (P21802 399-821 V564F limits assumed) above, with F166V counted along it
T2 sequence (P21802 399-821 N549H limits assumed): as the sequence (P21802 399-821 V564F limits assumed) above, with N151H, F166V counted along it

As for `C[C@@H](Oc1cc(-c2cnn(C)c2N)cn2ncc(C#N)c12)c1ccc(F)cn1` [Compound 30, (R)-6-(5-amino-1-methyl-1H-pyrazol-4-yl)-4-(1-(5-fluoropyridin-2-yl)ethoxy)pyrazolo[1,5-a]pyridine-3-carbonitrile], the IC50 in test [1] stood at 3.7 nM; in test [2] it was 2 nM; in test [3], 6 nM; in test [4], 9 nM; in test [5] (Table 3, read-out: FGFR2 Enz), 1 nM; in test [5] (setting [6]) it was 1 nM.

Consider `C[C@@H](Oc1cc(-c2cnn(CCO)c2N)cn2ncc(C#N)c12)c1ccc(F)cn1` [Compound 31, (R)-6-(5-amino-1-(2-hydroxyethyl)-1H-pyrazol-4-yl)-4-(1-(5-fluoropyridin-2-yl)ethoxy)pyrazolo[1,5-a]pyridine-3-carbonitrile], for which the IC50 in test [1] stood at 5 nM; in test [2], 2 nM; in test [3], 5.6 nM; in test [4], 7 nM; in test [5] (Table 3, read-out: FGFR2 Enz), 1 nM; in test [5] (setting [6]), 1 nM.

As for `C[C@@H](Oc1cc(-c2cnn([C@H]3CC[C@H](O)CC3)c2N)cn2ncc(C#N)c12)c1ccc(F)cn1` [Compound 32, 6-(5-amino-1-((1r,4R)-4-hydroxycyclohexyl)-1H-pyrazol-4-yl)-4-((R)-1-(5-fluoropyridin-2-yl)ethoxy)pyrazolo[1,5-a]pyridine-3-carbonitrile], the IC50 in test [1] was 1 nM; in test [2], 0.3 nM; in test [3], 1 nM; in test [4] it was 2.5 nM; in test [5] (Table 3, read-out: FGFR2 Enz) it was 0.4 nM; in test [5] (setting [6]), 0.4 nM.

With `Cc1c(-c2cc(O[C@H](C)c3ccc(F)cn3)c3c(C#N)cnn3c2)cnn1C1CCS(=O)(=O)CC1` [Compound 33, (R)-6-(1-(1,1-dioxidotetrahydro-2H-thiopyran-4-yl)-5-methyl-1H-pyrazol-4-yl)-4-(1-(5-fluoropyridin-2-yl)ethoxy)pyrazolo[1,5-a]pyridine-3-carbonitrile], the IC50 in test [1] came to 2 nM; in test [2], 0.7 nM; in test [3] it was 3 nM; in test [4] it was 6 nM; in test [5] (Table 3, read-out: FGFR2 Enz), 1 nM; in test [5] (setting [6]), 1 nM.

Take `C[C@@H](Oc1cc(-c2nnn(C)c2N)cn2ncc(C#N)c12)c1ccc(F)cn1` [Compound 34, (R)-6-(5-amino-1-methyl-1H-1,2,3-triazol-4-yl)-4-(1-(5-fluoropyridin-2-yl)ethoxy)pyrazolo[1,5-a]pyridine-3-carbonitrile]: the IC50 in test [1] was 10 nM; in test [2], 3 nM; in test [3], 12 nM; in test [4], 17 nM; in test [5] (Table 3, read-out: FGFR2 Enz) it was 2.6 nM; in test [5] (setting [6]), 2.6 nM.

For the compound `C[C@@H](Oc1cc(-c2cnn(C)c2N)cn2ncc(C#N)c12)c1ccccn1` [Compound 35, (R)-6-(5-amino-1-methyl-1H-pyrazol-4-yl)-4-(1-(pyridin-2-yl)ethoxy)pyrazolo[1,5-a]pyridine-3-carbonitrile], the IC50 in test [1] is 2 nM; in test [2] it was 1 nM; in test [3], 2.7 nM; in test [4], 5 nM; in test [5] (Table 3, read-out: FGFR2 Enz), 1 nM; in test [5] (setting [6]), 1 nM.

Turning to `CC(=O)N[C@H]1CC[C@H](n2ncc(-c3cc(O[C@H](C)c4ccc(F)cn4)c4c(C#N)cnn4c3)c2C)CC1` [Compound 36, N-((1R,4r)-4-(4-(3-cyano-4-((R)-1-(5-fluoropyridin-2-yl)ethoxy)pyrazolo[1,5-a]pyridin-6-yl)-5-methyl-1H-pyrazol-1-yl)cyclohexyl)acetamide], the IC50 in test [1] worked out at 1.5 nM; in test [2] it was 0.5 nM; in test [3], 2 nM; in test [4], 4 nM; in test [5] (Table 3, read-out: FGFR2 Enz), 0.4 nM; in test [5] (setting [6]), 0.4 nM.

As to `Cc1c(-c2cc(O[C@H](C)c3ccc(F)cn3)c3c(C#N)cnn3c2)cnn1[C@H]1CCCN(C[C@H](O)CO)C1` [Compound 37, 6-(1-((S)-1-((S)-2,3-dihydroxypropyl)piperidin-3-yl)-5-methyl-1H-pyrazol-4-yl)-4-((R)-1-(5-fluoropyridin-2-yl)ethoxy)pyrazolo[1,5-a]pyridine-3-carbonitrile], the IC50 in test [1] is 1 nM; in test [2], 0.3 nM; in test [3] it was 1.6 nM; in test [4] it was 5.6 nM; in test [5] (Table 3, read-out: FGFR2 Enz), 0.5 nM; in test [5] (setting [6]), 0.5 nM.

As for `Cc1c(-c2cc(O[C@H](C)c3ccc(F)cn3)c3c(C#N)cnn3c2)cnn1[C@H]1CCCN(C(CO)CO)C1` [Compound 38, 6-(1-((S)-1-(1,3-dihydroxypropan-2-yl)piperidin-3-yl)-5-methyl-1H-pyrazol-4-yl)-4-((R)-1-(5-fluoropyridin-2-yl)ethoxy)pyrazolo[1,5-a]pyridine-3-carbonitrile], the IC50 in test [1] amounted to 1 nM; in test [2], 0.3 nM; in test [3], 1.3 nM; in test [4], 6 nM; in test [5] (Table 3, read-out: FGFR2 Enz) it was 0.4 nM; in test [5] (setting [6]), 0.4 nM.

Take `Cc1c(-c2cc(O[C@H](C)c3ccc(F)cn3)c3c(C#N)cnn3c2)cnn1C1CCN(C[C@H](O)CO)CC1` [Compound 39, 6-(1-(1-((S)-2,3-dihydroxypropyl)piperidin-4-yl)-5-methyl-1H-pyrazol-4-yl)-4-((R)-1-(5-fluoropyridin-2-yl)ethoxy)pyrazolo[1,5-a]pyridine-3-carbonitrile]: the IC50 in test [1] was found to be 1 nM; in test [2] it was 0.4 nM; in test [3], 1 nM; in test [4], 5.5 nM; in test [5] (Table 3, read-out: FGFR2 Enz), 0.5 nM; in test [5] (setting [6]), 0.5 nM.

With `Cc1c(-c2cc(O[C@H](C)c3ccc(F)cn3)c3c(C#N)cnn3c2)cnn1[C@H]1CCCN(C(=O)C2(O)CCC2)C1` [Compound 40, 4-((R)-1-(5-fluoropyridin-2-yl)ethoxy)-6-(1-((S)-1-(1-hydroxycyclobutane-1-carbonyl)piperidin-3-yl)-5-methyl-1H-pyrazol-4-yl)pyrazolo[1,5-a]pyridine-3-carbonitrile], the IC50 in test [1] amounted to 2 nM; in test [2] it was 0.6 nM; in test [3], 3 nM; in test [4], 6.7 nM; in test [5] (Table 3, read-out: FGFR2 Enz), 1 nM; in test [5] (setting [6]), 1 nM.

Take `Cc1c(-c2cc(O[C@H](C)c3ccc(F)cn3)c3c(C#N)cnn3c2)cnn1C1CCN(C(=O)[C@H](C)O)CC1` [Compound 41, 4-((R)-1-(5-fluoropyridin-2-yl)ethoxy)-6-(1-(1-((S)-2-hydroxypropanoyl)piperidin-4-yl)-5-methyl-1H-pyrazol-4-yl)pyrazolo[1,5-a]pyridine-3-carbonitrile]: the IC50 is 2 nM in test [1]; 0.7 nM in test [2]; 2 nM in test [3]; 4 nM in test [4]; 0.5 nM in test [5] (Table 3, read-out: FGFR2 Enz); 0.5 nM in test [5] (setting [6]).

As to `Cc1c(-c2cc(O[C@H](C)c3ccc(F)cn3)c3c(C#N)cnn3c2)cnn1C1CCN(C(=O)CO)CC1` [Compound 42, (R)-4-(1-(5-fluoropyridin-2-yl)ethoxy)-6-(1-(1-(2-hydroxyacetyl)piperidin-4-yl)-5-methyl-1H-pyrazol-4-yl)pyrazolo[1,5-a]pyridine-3-carbonitrile], the IC50 was 1.7 nM in test [1]; 0.65 nM in test [2]; 2 nM in test [3]; 4 nM in test [4]; 0.6 nM in test [5] (Table 3, read-out: FGFR2 Enz); 0.6 nM in test [5] (setting [6]).

These data come from patent US12351581B2, “Compounds for FGFR inhibition” (Cogent Biosciences, Inc., priority 2023, dated 2025).
